{"source": "patent US20230093099A1", "about": "“COMPOUNDS AND METHODS OF TREATING CANCERS” (CULLGEN (SHANGHAI), INC., priority 2019, published 2023)", "data": [{"tested_on": "RS4;11 cells", "assay": "Cell viability assay (CellTiter-Glo) in RS4;11 cells", "assay_type": "cell-based", "conditions": "Homo sapiens, 72 h; RS4;11 ALL cells treated for three days; read-out: cell viability inhibition IC50", "outline": "(§1)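 RS4;11 cells seeded at 5000 per well, exposed for 3 days to 8- or 12-point 3-fold serial dilutions. Viability read by CellTiter-Glo luminescence; IC50 fitted by nonlinear least-squares regression.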", "units": {"IC50": "nM"}, "values": [{"compound": "O=C(CN1CCC(n2cc(-c3cnc4cccc(-c5cc(F)c(CN6CCOCC6)c(F)c5)c4n3)cn2)CC1)NCCCCCCCNc1ccc2c(c1)C(=O)N(C1CCC(=O)NC1=O)C2=O", "note": "(stereo not shown) [JA-179, 2-(4-(4-(8-(3,5-difluoro-4-(morpholinomethyl)phenyl)quinoxalin-2-yl)-1H-pyrazol-1-yl)piperidin-1-yl)-N-(7-((2-(2,6-dioxopiperidin-3-yl)-1,3-dioxoisoindolin-5-yl)amino)heptyl)acetamide]", "IC50": "< 100"}, {"compound": "O=C1CCC(N2C(=O)c3ccc(NCCCCCCC(=O)N4CCC(n5cc(-c6cnc7cccc(-c8cc(F)c(CN9CCOCC9)c(F)c8)c7n6)cn5)CC4)cc3C2=O)C(=O)N1", "note": "(stereo not shown) [JA-188, 5-((7-(4-(4-(8-(3,5-difluoro-4-(morpholinomethyl)phenyl)quinoxalin-2-yl)-1H-pyrazol-1-yl)piperidin-1-yl)-7-oxoheptyl)amino)-2-(2,6-dioxopiperidin-3-yl)isoindoline-1,3-dione]", "IC50": "< 100"}, {"compound": "CS(=O)(=O)c1ccc(-c2cccc3nc(Nc4ccc(N5CCN(CC(=O)NCCCCCCCNc6ccc7c(c6)C(=O)N(C6CCC(=O)NC6=O)C7=O)CC5)cc4)nn23)cc1", "note": "(stereo not shown) [JA-214]", "IC50": "< 100"}]}, {"tested_on": "RS4;11 cells", "assay": "Cell viability assay (CellTiter-Glo) in RS4;11 cells", "assay_type": "cell-based", "conditions": "Homo sapiens, 72 h; RS4;11 cells; cell viability, 3 days, CellTiter-Glo; read-out: IC50", "outline": "as §1", "units": {"IC50": "nM"}, "values": [{"compound": "Cc1ncsc1-c1ccc(CNC(=O)[C@@H]2C[C@@H](O)CN2C(=O)[C@@H](NC(=O)CCOCCOCCC(=O)N2CCN(c3ccc(Nc4nc5cccc(-c6ccc(S(C)(=O)=O)cc6)n5n4)cc3)CC2)C(C)(C)C)cc1", "note": "[JA-070, (2S,4R)-1-((S)-3,3-Dimethyl-2-(3-(2-(3-(4-(4-((5-(4-(methylsulfonyl)phenyl)-[1,2,4]triazolo[1,5-a]pyridin-2-yl)amino)phenyl)piperazin-1-yl)-3-oxopropoxy)ethoxy)propanamido)butanoyl)-4-hydroxy-N-(4-(4-methylthiazol-5-yl)benzyl)pyrrolidine-2-carboxamide]", "IC50": 2750}, {"compound": "O=C1CCC(N2C(=O)c3ccc(NCCCC(=O)N4CCC(n5cc(-c6cnc7cccc(-c8cc(F)c(CN9CCOCC9)c(F)c8)c7n6)cn5)CC4)cc3C2=O)C(=O)N1", "note": "(stereo not shown) [JA-192, 5-((4-(4-(4-(8-(3,5-Difluoro-4-(morpholinomethyl)phenyl)quinoxalin-2-yl)-1H-pyrazol-1-yl)piperidin-1-yl)-4-oxobutyl)amino)-2-(2,6-dioxopiperidin-3-yl)isoindoline-1,3-dione]", "IC50": "> 10000"}, {"compound": "Cc1ncsc1-c1ccc(CNC(=O)[C@@H]2C[C@@H](O)CN2C(=O)[C@@H](NC(=O)CCCCCCCCCCNC(=O)CN2CCN(c3ccc(Nc4nc5cccc(-c6ccc(S(C)(=O)=O)cc6)n5n4)cc3)CC2)C(C)(C)C)cc1", "note": "[JA-128, (2S,4R)-1-((S)-3,3-Dimethyl-2-(11-(2-(4-(4-((5-(4-(methylsulfonyl)phenyl)-[1,2,4]triazolo[1,5-a]pyridin-2-yl)amino)phenyl)piperazin-1-yl)acetamido)undecanamido)butanoyl)-4-hydroxy-N-(4-(4-methylthiazol-5-yl)benzyl)pyrrolidine-2-carboxamide]", "IC50": "> 10000"}, {"compound": "Cc1cnc(Nc2ccc(N3CCN(CC(=O)NCCCCC(=O)N[C@H](C(=O)N4C[C@H](O)C[C@H]4C(=O)NCc4ccc(-c5scnc5C)cc4)C(C)(C)C)CC3)cc2)nc1Nc1cccc(S(=O)(=O)NC(C)(C)C)c1", "note": "[JA-100, (2S,4R)-1-((S)-2-(5-(2-(4-(4-((4-((3-(N-(tert-Butyl)sulfamoyl)phenyl)amino)-5-methylpyrimidin-2-yl)amino)phenyl)piperazin-1-yl)acetamido)pentanamido)-3,3-dimethylbutanoyl)-4-hydroxy-N-(4-(4-methylthiazol-5-yl)benzyl)pyrrolidine-2-carboxamide]", "IC50": "> 10000"}, {"compound": "O=C(CN1CCC(n2cc(-c3cnc4cccc(-c5cc(F)c(CN6CCOCC6)c(F)c5)c4n3)cn2)CC1)NCCCCCCCNc1ccc2c(c1)C(=O)N(C1CCC(=O)NC1=O)C2=O", "note": "(stereo not shown) [JA-179, 2-(4-(4-(8-(3,5-difluoro-4-(morpholinomethyl)phenyl)quinoxalin-2-yl)-1H-pyrazol-1-yl)piperidin-1-yl)-N-(7-((2-(2,6-dioxopiperidin-3-yl)-1,3-dioxoisoindolin-5-yl)amino)heptyl)acetamide]", "IC50": 78.3}, {"compound": "CS(=O)(=O)c1ccc(-c2cccc3nc(Nc4ccc(N5CCN(CCCCCC#Cc6ccc7c(c6)C(=O)N(C6CCC(=O)NC6=O)C7=O)CC5)cc4)nn23)cc1", "note": "(stereo not shown) [JA-252, 2-(2,6-dioxopiperidin-3-yl)-5-(7-(4-(4-((5-(4-(methylsulfonyl)phenyl)-[1,2,4]triazolo[1,5-a]pyridin-2-yl)amino)phenyl)piperazin-1-yl)hept-1-yn-1-yl)isoindoline-1,3-dione]", "IC50": 24.6}, {"compound": "Cc1cnc(Nc2ccc(N3CCN(CC(=O)NCCCCCNc4ccc5c(c4)C(=O)N(C4CCC(=O)NC4=O)C5=O)CC3)cc2)nc1Nc1cccc(S(=O)(=O)NC(C)(C)C)c1", "note": "(stereo not shown) [JA-244, 2-(4-(4-((4-((3-(N-(tert-butyl)sulfamoyl)phenyl)amino)-5-methylpyrimidin-2-yl)amino)phenyl)piperazin-1-yl)-N-(5-((2-(2,6-dioxopiperidin-3-yl)-1,3-dioxoisoindolin-5-yl)amino)pentyl)acetamide]", "IC50": "> 10000"}, {"compound": "O=C1CCC(N2C(=O)c3ccc(NCCCCCCC(=O)N4CCC(n5cc(-c6cnc7cccc(-c8cc(F)c(CN9CCOCC9)c(F)c8)c7n6)cn5)CC4)cc3C2=O)C(=O)N1", "note": "(stereo not shown) [JA-188, 5-((7-(4-(4-(8-(3,5-difluoro-4-(morpholinomethyl)phenyl)quinoxalin-2-yl)-1H-pyrazol-1-yl)piperidin-1-yl)-7-oxoheptyl)amino)-2-(2,6-dioxopiperidin-3-yl)isoindoline-1,3-dione]", "IC50": 69.7}, {"compound": "CS(=O)(=O)c1ccc(-c2cccc3nc(Nc4ccc(N5CCN(CC(=O)NCCCCCCCNc6ccc7c(c6)C(=O)N(C6CCC(=O)NC6=O)C7=O)CC5)cc4)nn23)cc1", "note": "(stereo not shown) [JA-214]", "IC50": 63.5}, {"compound": "Cn1c(=O)n(C2CCC(=O)NC2=O)c2ccc(NCCCCCCC(=O)N3CCC(n4cc(-c5cnc6cccc(-c7cc(F)c(CN8CCOCC8)c(F)c7)c6n5)cn4)CC3)cc21", "note": "(stereo not shown) [JA-289, 3-(5-((7-(4-(4-(8-(3,5-Difluoro-4-(morpholinomethyl)phenyl)quinoxalin-2-yl)-1H-pyrazol-1-yl)piperidin-1-yl)-7-oxoheptyl)amino)-3-methyl-2-oxo-2,3-dihydro-1H-benzo[d]imidazol-1-yl)piperidine-2,6-dione]", "IC50": "> 500"}, {"compound": "CS(=O)(=O)c1ccc(-c2cccc3nc(Nc4ccc(N5CCN(C(=O)CCCCCOc6ccc7c(c6)C(=O)N(C6CCC(=O)NC6=O)C7=O)CC5)cc4)nn23)cc1", "note": "(stereo not shown) [JA-255, 2-(2,6-Dioxopiperidin-3-yl)-5-((6-(4-(4-((5-(4-(methylsulfonyl)phenyl)-[1,2,4]triazolo[1,5-a]pyridin-2-yl)amino)phenyl)piperazin-1-yl)-6-oxohexyl)oxy)isoindoline-1,3-dione]", "IC50": 259}, {"compound": "O=C1CCC(n2c(=O)n(CCCCCCC(=O)N3CCC(n4cc(-c5cnc6cccc(-c7cc(F)c(CN8CCOCC8)c(F)c7)c6n5)cn4)CC3)c3ccccc32)C(=O)N1", "note": "(stereo not shown) [JA-279, 3-(3-(7-(4-(4-(8-(3,5-Difluoro-4-(morpholinomethyl)phenyl)quinoxalin-2-yl)-1H-pyrazol-1-yl)piperidin-1-yl)-7-oxoheptyl)-2-oxo-2,3-dihydro-1H-benzo[d]imidazol-1-yl)piperidine-2,6-dione]", "IC50": "> 500"}, {"compound": "O=C1CCC(N2Cc3ccc(OCCCCCC(=O)N4CCC(n5cc(-c6cnc7cccc(-c8cc(F)c(CN9CCOCC9)c(F)c8)c7n6)cn5)CC4)cc3C2=O)C(=O)N1", "note": "(stereo not shown) [JA-274, 3-(6-((6-(4-(4-(8-(3,5-Difluoro-4-(morpholinomethyl)phenyl)quinoxalin-2-yl)-1H-pyrazol-1-yl)piperidin-1-yl)-6-oxohexyl)oxy)-1-oxoisoindolin-2-yl)piperidine-2,6-dione]", "IC50": 1670}, {"compound": "Cn1c(=O)n(C2CCC(=O)NC2=O)c2cccc(NCCCCCCC(=O)N3CCC(n4cc(-c5cnc6cccc(-c7cc(F)c(CN8CCOCC8)c(F)c7)c6n5)cn4)CC3)c21", "note": "(stereo not shown) [JA-283, 3-(4-((7-(4-(4-(8-(3,5-Difluoro-4-(morpholinomethyl)phenyl)quinoxalin-2-yl)-1H-pyrazol-1-yl)piperidin-1-yl)-7-oxoheptyl)amino)-3-methyl-2-oxo-2,3-dihydro-1H-benzo[d]imidazol-1-yl)piperidine-2,6-dione]", "IC50": "> 500"}, {"compound": "Cc1ncsc1-c1ccc(CNC(=O)[C@@H]2C[C@@H](O)CN2C(=O)[C@@H](NC(=O)CCCCCCC(=O)N2CCN(c3ccc(Nc4nc5cccc(-c6ccc(S(C)(=O)=O)cc6)n5n4)cc3)CC2)C(C)(C)C)cc1", "note": "[JA-062, (2S,4R)-1-((S)-3,3-Dimethyl-2-(8-(4-(4-((5-(4-(methylsulfonyl)phenyl)-[1,2,4]triazolo[1,5-a]pyridin-2-yl)amino)phenyl)piperazin-1-yl)-8-oxooctanamido)butanoyl)-4-hydroxy-N-(4-(4-methylthiazol-5-yl)benzyl)pyrrolidine-2-carboxamide]", "IC50": "> 10000"}, {"compound": "CS(=O)(=O)c1ccc(-c2cccc3nc(Nc4ccc(N5CCN(CC(=O)NCCCCCCNc6ccc7c(c6)C(=O)N(C6CCC(=O)NC6=O)C7=O)CC5)cc4)nn23)cc1", "note": "(stereo not shown) [JA-215, N-(6-((2-(2,6-dioxopiperidin-3-yl)-1,3-dioxoisoindolin-5-yl)amino)hexyl)-2-(4-(4-((5-(4-(methylsulfonyl)phenyl)-[1,2,4]triazolo[1,5-a]pyridin-2-yl)amino)phenyl)piperazin-1-yl)acetamide]", "IC50": "> 10000"}, {"compound": "Cc1cnc(Nc2ccc(N3CCN(C(=O)CCOCCOCCNc4ccc5c(c4)C(=O)N(C4CCC(=O)NC4=O)C5=O)CC3)cc2)nc1Nc1cccc(S(=O)(=O)NC(C)(C)C)c1", "note": "(stereo not shown) [JA-233, N-(tert-butyl)-3-((2-((4-(4-(3-(2-(2-((2-(2,6-dioxopiperidin-3-yl)-1,3-dioxoisoindolin-5-yl)amino)ethoxy)ethoxy)propanoyl)piperazin-1-yl)phenyl)amino)-5-methylpyrimidin-4-yl)amino)benzenesulfonamide]", "IC50": 287}, {"compound": "Cc1cnc(Nc2ccc(N3CCN(CC(=O)NCC(=O)N[C@H](C(=O)N4C[C@H](O)C[C@H]4C(=O)NCc4ccc(-c5scnc5C)cc4)C(C)(C)C)CC3)cc2)nc1Nc1cccc(S(=O)(=O)NC(C)(C)C)c1", "note": "[JA-097, (2S,4R)-1-((S)-2-(2-(2-(4-(4-((4-((3-(N-(tert-Butyl)sulfamoyl)phenyl)amino)-5-methylpyrimidin-2-yl)amino)phenyl)piperazin-1-yl)acetamido)acetamido)-3,3-dimethylbutanoyl)-4-hydroxy-N-(4-(4-methylthiazol-5-yl)benzyl)pyrrolidine-2-carboxamide]", "IC50": "> 10000"}, {"compound": "Cc1ncsc1-c1ccc(CNC(=O)[C@@H]2C[C@@H](O)CN2C(=O)[C@@H](NC(=O)CCCCCCCCCNC(=O)CN2CCN(c3ccc(Nc4nc5cccc(-c6ccc(S(C)(=O)=O)cc6)n5n4)cc3)CC2)C(C)(C)C)cc1", "note": "[JA-120, (2S,4R)-1-((S)-3,3-Dimethyl-2-(10-(2-(4-(4-((5-(4-(methylsulfonyl)phenyl)-[1,2,4]triazolo[1,5-a]pyridin-2-yl)amino)phenyl)piperazin-1-yl)acetamido)decanamido)butanoyl)-4-hydroxy-N-(4-(4-methylthiazol-5-yl)benzyl)pyrrolidine-2-carboxamide]", "IC50": "> 10000"}]}]}
